SMILES | melting point [°C]
CC(C)(C)C(=O)Nc1ccccc1C(=O)O | 157 to 159
NC(=O)c1n[nH]c2ccc(N)cc12 | 199 to 201
O=C(CBr)c1sccc1Br | 60 to 62
COC(=O)c1n[nH]c(=O)c2ccccc12 | 127 to 129
N#Cc1cn(-c2ccccc2[N+](=O)[O-])nc1N | 188 to 190
COc1ccccc1NC(=O)C(Br)C(C)C (centres undefined) | 107 to 109
CC1CCN(C(=O)CCl)c2ccccc2S1 (centres undefined) | 125 to 127
CC(C)(C)c1cnnc(N)n1 | 187 to 189
CCc1ccc(C(C)(C)C(=O)O)cc1 | 52 to 54
CC(C)c1nnc(C(C)C)[nH]1 | 147 to 149
Nc1nonc1-c1ccc(Br)cc1 | 141 to 143
CC(O)c1nc2cc(Cl)ccc2n1C (centres undefined) | 136 to 138
N#Cc1cnc(-c2ccccc2)nc1 | 189 to 191
COc1cc(C=O)ccc1OCC(=O)c1ccccc1 | 127 to 129
Cc1cc(C#N)ccc1N1CC2CCC1C2 (centres undefined) | 69 to 71
CCOc1ccc(Br)cc1S(N)(=O)=O | 143 to 145
O=C1NC(=O)C(c2ccc(F)c(Br)c2)N1 (centres undefined) | 173 to 175
NCc1ncc(-c2ccccc2)[nH]1 | 142 to 144
NC(=O)COc1cccc(CO)c1 | 116 to 118
O=C(O)c1cc(OCC(F)(F)F)ccc1[N+](=O)[O-] | 156 to 158
COc1cc([N+](=O)[O-])cc2sc(N)nc12 | 279 to 281
Nc1cccc(-c2ccc(=O)[nH]n2)c1 | 206 to 208
CCC1SC(N)=NC1=O (centres undefined) | 188 to 190
CC(C)(N)CN1CCN(c2ccccc2)CC1 | 84 to 86
O=S(=O)(c1ccc2c(c1)CCCN2)N1CCCC1 | 130 to 132

SMILES | melting point [°C]
CC(Cl)C(=O)Nc1ccc(N2CCCC2=O)cc1 (centres undefined) | 194 to 196
NC(=O)c1c(F)cc(Br)cc1F | 172 to 174
CCN(CC)c1nc2ccccc2[nH]c1=O | 151 to 153
O=C(O)c1cccc(-n2cnnn2)c1 | 168 to 170
CCCC1(C)NC(=O)NC1=O (centres undefined) | 123 to 125
Nc1nc2cc(Cl)ccc2s1 | 197 to 199
CCCCCNC1=NCC(c2ccccc2)S1 (centres undefined) | 66 to 68
O=C(O)Cc1ccc(Cl)cc1Br | 126 to 128
O=C(O)Cc1c[nH]c2ccc([N+](=O)[O-])cc12 | 189 to 191
COc1ccc(CCNC(=O)C(C)Cl)cc1OC (centres undefined) | 76 to 78
COc1ccc(F)cc1C(F)(F)C(=O)O | 125 to 127
CC(C)Oc1cncc(C(=O)O)c1 | 172 to 174
NC(=O)CCC1CCCCC1 | 116 to 118
O=C(O)c1ccc(=O)n(-c2ccccc2F)n1 | 199 to 201
COc1ccc(C)cc1NCCC(=O)O | 77 to 79
COc1ccc(C(=O)NC(C(=O)O)C(C)C)cc1 (centres undefined) | 163 to 165
NS(=O)(=O)c1cncc(Br)c1 | 199 to 201
CCOC(CC(N)=O)OCC | 51 to 53
O=C(O)c1ccc(=O)n(-c2ccccc2F)c1 | 249 to 251
COC(=O)c1cccc(C(N)=S)c1 | 137 to 139
CC1(C)NC(=O)C1(C)C | 95 to 97
CCc1cccc(CC)c1-n1ccnc1 | 74 to 76
Cc1nc(-c2cccc(NC(=O)CCl)c2)cs1 | 45 to 47
CC1=NN(c2ccc(Br)cc2)C(=O)C1 | 164 to 166
Cc1ccc2c(c1)C(=O)CCC2 | 28 to 30

SMILES | melting point [°C]
COC(=O)c1cc(Cl)c2ccccc2n1 | 121 to 123
COc1ccc(Cl)c(NC(=O)NN)c1 | 159 to 161
CC(Cl)C(=O)Nc1ccc([N+](=O)[O-])cc1 (centres undefined) | 138 to 140
Cc1ccc(C(=O)Cc2ccccn2)cc1 | 73 to 75
Cc1cc2ncc(S(C)(=O)=O)c(N)n2n1 | 208 to 210
NC(=O)N1CC=C(c2ccc(O)cc2)CC1 | 244 to 246
O=C1CCC(Cc2ccc(O)cc2)O1 (centres undefined) | 104 to 106
CCC(Nc1nc(C)cs1)C(=O)O (centres undefined) | 173 to 175
N#Cc1cccc(OCc2ccoc2C(=O)O)c1 | 177 to 179
Cc1c[nH]c(=O)n1-c1ccccc1 | 210 to 212
NC(=O)c1cccc(C=O)c1 | 108 to 110
O=C(O)CN1C(=O)C2CCCCC2C1=O (centres undefined) | 88 to 90
CC1(C)CNCCS1(=O)=O | 46 to 48
c1ccc(CCc2nnn[nH]2)cc1 | 96 to 98
CC(C)CNc1nnc(S)s1 | 155 to 157
COC(=O)c1cc(N)c(Br)cc1F | 87 to 89
O=C(CCl)Nc1ccccc1C(=O)NC1CC1 | 170 to 172
Fc1ccccc1Nc1nnc(S)s1 | 170 to 172
Cn1cnnc1CN | 32 to 34
Cc1nc2ccccc2n1N | 145 to 147
CC(=O)CCc1ccc(OC(C)C(=O)O)cc1 (centres undefined) | 68 to 70
O=C(O)c1cccc(NC(=O)C2CC2)c1 | 264 to 266
Nc1cccc(-c2n[nH]c3c2CCC3)c1 | 168 to 170
CNc1ncccn1 | 60 to 62

Source: a melting point compilation (Tetko et al.)
